Test results published in patent publication US20190160016A1, “Anti-Parasitic Compositions and Methods” (University of Canberra, priority 2016, published 2019).

Tests used:
[1] = test system: Sarcoptes scabiei nits; assay: ovicidal activity against scabies eggs (hatching rate)
Experimental: To determine the ovicidal activity of Manuka oil and its fraction, dilutions to 2.5% and 5% were made in olive oil. […] Six independent experiments were conducted on separate days.

[2] = test system: P. humanus capitis adults and nymphs; assay: filter paper diffusion bioassay, pediculicidal activity; conditions: mean individual louse survival time, in vitro pediculicidal treatment
Text: Adults, nymphs, and nits of P. humanus capitis were collected from a population of children between the ages of 3 and 12, with the approval of their guardians, by raking a metal louse comb through sections of the scalp. Adult and nymph lice as well as nits (eggs) were obtained and pooled by carefully removing them from the metal teeth of the comb into clean plastic boxes. The children had not been treated with any pediculicide solution for at least the preceding month, using only the louse comb.
For testing the pediculicidal activity, a filter paper diffusion bioassay was made with adults and nymphs of the insect collected from heads no more than 4 hours before carrying out the assay. After careful selection under a dissecting microscope, 10 lice in a ratio of 8:2 adult:nymph III were placed on a filter paper disk (Whatman No 1; 9-cm diameter) on the lid of a Petri dish. Next, 0.5 ml of either (a) each test solution; (b) distilled water with Tween-20 (control); and (c) distilled water, Tween-20, and preserving agents (excipient control), were spread over the lice and filter paper for each group. The commercial lotions (containing tea tree oil and permethrin as chief active components) (0.5 ml) were simultaneously run as a positive controls. Three to nine replicates were conducted for each treatment. […] The number of dead lice were recorded for each dish.

Row | Structure (SMILES) | Percentage inhibition, Day 4 ([1]; Day 4) [%] | Percentage inhibition, Day 8 ([1]; Day 8) [%] | ovicidal activity (in words) ([1]; nymph emergence, Table 2) | Mean survival time [2] [min]
1 | CC[C@H](C)[C@H]1O[C@]2(CC[C@@H]1C)C[C@@H]1C[C@@H](C/C=C(\C)[C@@H](O[C@H]3C[C@H](OC)[C@@H](O[C@H]4C[C@H](OC)[C@@H](O)[C@H](C)O4)[C@H](C)O3)[C@@H](C)/C=C/C=C3\CO[C@@H]4[C@H](O)C(C)=C[C@@H](C(=O)O1)[C@]34O)O2 [Ivermectin (100 μ/μL), ivermectin] | 12.4 ± 5.0 | 9.8 ± 4.8 | poor ovicidal activity | –
2 | CC1(C)C(C=C(Cl)Cl)C1C(=O)OCc1cccc(Oc2ccccc2)c1 (stereo not shown) [Permethrin, permethrin] | – | – | – | 56.4
